Targets include ALK(L1196M) (Homo sapiens, UniProt Q9UM73, L1196M); BMPR2 (Homo sapiens, UniProt Q13873); CAMK1D (Homo sapiens, UniProt Q8IU85); CAMK1G (Homo sapiens, UniProt Q96NX5); CDKL2 (Homo sapiens, UniProt Q92772); CLK1 (Homo sapiens, UniProt P49759); CSNK1D (Homo sapiens, UniProt P48730); DMPK (Homo sapiens, UniProt Q09013); EPHA4 (Homo sapiens, UniProt P54764); FLT3(ITD,D835V) (Homo sapiens, UniProt P36888, D835V/ITD); FLT3(K663Q) (Homo sapiens, UniProt P36888, K663Q); MAP3K4 (Homo sapiens, UniProt Q9Y6R4); MARK4 (Homo sapiens, UniProt Q96L34); MYLK2 (Homo sapiens, UniProt Q9H1R3); PIK3C2B (Homo sapiens, UniProt O00750); RIOK3 (Homo sapiens, UniProt O14730); TNIK (Homo sapiens, UniProt Q9UKE5); WEE2 (Homo sapiens, UniProt P0C1S8).

What all share (assay): biochemical
Common to all, as to parameters: KINOMEscan active-site-directed competition binding panel, 468 kinases, percent of DMSO control at 1 uM
Common to all, as to details: KINOMEscan binding, percent of DMSO control; read-out: Ctrl%

Assay [1] deals with T1, ABL1(Q252H)-phosphorylated (Homo sapiens, UniProt P00519, Q252H).
T1 construct: phosphorylated

The target of a further assay is T2, AMPK-alpha1 (Homo sapiens, UniProt Q13131).
T2 construct: gene PRKAA1

A further assay has as its target T3, BIKE (Homo sapiens, UniProt Q9NSY1).
T3 construct: gene BMP2K

The target of the next assay is T4, CTK (Homo sapiens, UniProt P42679).
T4 construct: gene MATK

A further assay addresses T5, ERK1 (Homo sapiens, UniProt P27361).
T5 construct: gene MAPK3

For the next assay, the target named is T6, MEK4 (Homo sapiens, UniProt P45985).
T6 construct: gene MAP2K4
T6 sequence (P45985 whole entry): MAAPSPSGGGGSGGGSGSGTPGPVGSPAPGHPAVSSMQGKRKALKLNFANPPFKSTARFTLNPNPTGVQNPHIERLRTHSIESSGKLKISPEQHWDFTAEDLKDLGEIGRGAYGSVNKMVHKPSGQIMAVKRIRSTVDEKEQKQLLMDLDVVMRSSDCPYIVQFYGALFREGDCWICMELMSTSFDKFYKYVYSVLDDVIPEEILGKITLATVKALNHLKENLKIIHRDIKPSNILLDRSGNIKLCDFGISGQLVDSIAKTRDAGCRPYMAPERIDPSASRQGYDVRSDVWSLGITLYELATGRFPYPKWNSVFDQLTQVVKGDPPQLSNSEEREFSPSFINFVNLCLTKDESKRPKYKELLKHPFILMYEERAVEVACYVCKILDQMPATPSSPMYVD

Molecules are shown by their SMILES.

These results are taken from article PMC8799717, “Pharmacological targeting PIKfyve and tubulin as an effective treatment strategy for double-hit lymphoma” (Cell Death Discovery, 2022).

Chain of CAMK1G (Q96NX5 whole entry): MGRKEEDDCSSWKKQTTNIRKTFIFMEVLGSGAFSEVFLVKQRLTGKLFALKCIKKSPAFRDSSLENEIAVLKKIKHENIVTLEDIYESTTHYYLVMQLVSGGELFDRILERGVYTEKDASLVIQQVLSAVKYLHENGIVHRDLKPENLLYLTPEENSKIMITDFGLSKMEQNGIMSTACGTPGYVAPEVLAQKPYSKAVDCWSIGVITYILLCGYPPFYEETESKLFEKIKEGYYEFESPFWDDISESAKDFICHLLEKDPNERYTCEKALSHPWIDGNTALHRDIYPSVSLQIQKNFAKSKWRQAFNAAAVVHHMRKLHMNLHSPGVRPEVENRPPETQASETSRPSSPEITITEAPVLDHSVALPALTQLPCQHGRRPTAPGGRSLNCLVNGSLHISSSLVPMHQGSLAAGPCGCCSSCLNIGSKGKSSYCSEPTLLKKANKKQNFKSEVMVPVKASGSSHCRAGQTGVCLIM
Chain of MAP3K4 (Q9Y6R4 whole entry): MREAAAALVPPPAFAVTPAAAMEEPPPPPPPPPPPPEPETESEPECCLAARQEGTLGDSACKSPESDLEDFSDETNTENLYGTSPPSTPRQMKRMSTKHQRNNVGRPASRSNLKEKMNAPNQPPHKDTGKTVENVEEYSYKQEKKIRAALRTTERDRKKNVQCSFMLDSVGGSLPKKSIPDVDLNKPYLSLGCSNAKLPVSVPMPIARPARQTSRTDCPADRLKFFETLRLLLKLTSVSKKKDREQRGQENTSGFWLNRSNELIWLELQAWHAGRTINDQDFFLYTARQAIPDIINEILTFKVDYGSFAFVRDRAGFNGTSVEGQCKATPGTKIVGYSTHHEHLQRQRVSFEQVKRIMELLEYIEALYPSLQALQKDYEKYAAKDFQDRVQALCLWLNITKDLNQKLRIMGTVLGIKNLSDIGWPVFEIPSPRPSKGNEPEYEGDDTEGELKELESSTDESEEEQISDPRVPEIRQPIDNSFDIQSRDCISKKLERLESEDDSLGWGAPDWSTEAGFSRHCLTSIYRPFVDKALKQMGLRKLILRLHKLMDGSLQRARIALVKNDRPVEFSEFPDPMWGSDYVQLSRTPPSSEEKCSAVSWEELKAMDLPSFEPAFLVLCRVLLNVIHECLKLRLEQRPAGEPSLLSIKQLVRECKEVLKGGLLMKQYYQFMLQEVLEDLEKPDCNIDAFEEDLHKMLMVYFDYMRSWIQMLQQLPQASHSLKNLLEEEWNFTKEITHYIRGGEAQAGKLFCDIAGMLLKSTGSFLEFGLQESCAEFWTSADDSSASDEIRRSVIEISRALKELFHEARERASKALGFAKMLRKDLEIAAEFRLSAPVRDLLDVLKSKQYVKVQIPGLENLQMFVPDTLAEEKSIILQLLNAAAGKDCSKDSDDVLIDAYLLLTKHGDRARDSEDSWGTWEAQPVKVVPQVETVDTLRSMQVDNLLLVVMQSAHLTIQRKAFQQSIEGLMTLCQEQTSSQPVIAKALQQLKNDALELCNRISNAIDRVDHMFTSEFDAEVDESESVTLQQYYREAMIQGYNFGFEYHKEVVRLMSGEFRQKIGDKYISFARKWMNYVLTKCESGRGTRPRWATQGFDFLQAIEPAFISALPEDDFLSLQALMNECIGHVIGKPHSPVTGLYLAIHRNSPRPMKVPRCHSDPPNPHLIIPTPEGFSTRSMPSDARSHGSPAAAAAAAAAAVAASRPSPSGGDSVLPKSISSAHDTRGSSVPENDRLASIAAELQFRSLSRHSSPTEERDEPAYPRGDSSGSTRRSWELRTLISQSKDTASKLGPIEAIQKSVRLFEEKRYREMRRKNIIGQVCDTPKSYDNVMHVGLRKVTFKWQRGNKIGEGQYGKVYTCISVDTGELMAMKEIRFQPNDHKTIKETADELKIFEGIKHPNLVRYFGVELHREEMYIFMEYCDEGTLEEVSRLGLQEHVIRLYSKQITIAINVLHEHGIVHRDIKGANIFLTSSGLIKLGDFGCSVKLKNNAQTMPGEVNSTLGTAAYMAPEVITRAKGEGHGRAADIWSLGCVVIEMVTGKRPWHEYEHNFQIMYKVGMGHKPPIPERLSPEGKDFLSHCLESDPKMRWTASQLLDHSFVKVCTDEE
Chain of DMPK (Q09013 whole entry): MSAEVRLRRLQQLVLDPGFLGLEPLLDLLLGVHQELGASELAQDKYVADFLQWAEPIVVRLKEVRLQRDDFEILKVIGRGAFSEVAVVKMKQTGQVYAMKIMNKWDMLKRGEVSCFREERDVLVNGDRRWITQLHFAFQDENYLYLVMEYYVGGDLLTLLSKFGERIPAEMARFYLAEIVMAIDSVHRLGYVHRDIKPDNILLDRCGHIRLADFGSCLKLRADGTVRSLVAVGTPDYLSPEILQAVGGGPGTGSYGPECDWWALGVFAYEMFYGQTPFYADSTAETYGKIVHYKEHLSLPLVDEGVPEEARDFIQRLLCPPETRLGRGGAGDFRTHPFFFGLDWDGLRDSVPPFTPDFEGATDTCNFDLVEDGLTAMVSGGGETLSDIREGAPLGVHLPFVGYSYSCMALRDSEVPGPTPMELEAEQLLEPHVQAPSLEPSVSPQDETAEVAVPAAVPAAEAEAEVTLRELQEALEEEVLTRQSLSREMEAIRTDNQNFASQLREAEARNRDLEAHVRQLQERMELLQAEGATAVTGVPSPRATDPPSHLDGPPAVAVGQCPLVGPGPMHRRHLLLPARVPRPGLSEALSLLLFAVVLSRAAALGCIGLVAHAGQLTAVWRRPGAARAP
Chain of BMPR2 (Q13873 whole entry): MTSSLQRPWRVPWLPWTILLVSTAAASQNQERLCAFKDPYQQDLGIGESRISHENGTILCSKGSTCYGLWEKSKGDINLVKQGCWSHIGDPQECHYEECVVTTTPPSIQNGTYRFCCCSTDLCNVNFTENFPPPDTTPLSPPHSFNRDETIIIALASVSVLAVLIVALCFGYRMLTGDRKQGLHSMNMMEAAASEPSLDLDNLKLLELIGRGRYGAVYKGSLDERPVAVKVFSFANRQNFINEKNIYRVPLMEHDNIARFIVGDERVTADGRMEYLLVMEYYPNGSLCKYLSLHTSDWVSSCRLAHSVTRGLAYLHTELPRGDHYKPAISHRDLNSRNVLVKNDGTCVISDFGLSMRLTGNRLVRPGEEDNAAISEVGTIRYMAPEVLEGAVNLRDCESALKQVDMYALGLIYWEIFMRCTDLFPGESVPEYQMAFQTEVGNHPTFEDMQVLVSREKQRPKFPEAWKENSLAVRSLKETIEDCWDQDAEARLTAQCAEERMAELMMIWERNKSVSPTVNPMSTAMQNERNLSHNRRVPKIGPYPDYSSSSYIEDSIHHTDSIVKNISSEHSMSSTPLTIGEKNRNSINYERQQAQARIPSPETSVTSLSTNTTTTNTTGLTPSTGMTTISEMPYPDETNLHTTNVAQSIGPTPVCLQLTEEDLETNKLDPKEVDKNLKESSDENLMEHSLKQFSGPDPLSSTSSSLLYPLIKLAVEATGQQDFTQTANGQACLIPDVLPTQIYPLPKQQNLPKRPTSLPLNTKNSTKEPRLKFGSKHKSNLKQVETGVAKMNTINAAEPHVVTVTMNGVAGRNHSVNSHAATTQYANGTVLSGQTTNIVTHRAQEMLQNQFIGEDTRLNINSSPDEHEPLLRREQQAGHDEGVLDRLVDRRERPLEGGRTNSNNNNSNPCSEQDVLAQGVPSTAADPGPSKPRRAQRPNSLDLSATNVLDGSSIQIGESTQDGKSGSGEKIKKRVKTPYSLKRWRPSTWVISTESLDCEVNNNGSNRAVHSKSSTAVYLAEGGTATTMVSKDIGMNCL
Chain of CDKL2 (Q92772 whole entry): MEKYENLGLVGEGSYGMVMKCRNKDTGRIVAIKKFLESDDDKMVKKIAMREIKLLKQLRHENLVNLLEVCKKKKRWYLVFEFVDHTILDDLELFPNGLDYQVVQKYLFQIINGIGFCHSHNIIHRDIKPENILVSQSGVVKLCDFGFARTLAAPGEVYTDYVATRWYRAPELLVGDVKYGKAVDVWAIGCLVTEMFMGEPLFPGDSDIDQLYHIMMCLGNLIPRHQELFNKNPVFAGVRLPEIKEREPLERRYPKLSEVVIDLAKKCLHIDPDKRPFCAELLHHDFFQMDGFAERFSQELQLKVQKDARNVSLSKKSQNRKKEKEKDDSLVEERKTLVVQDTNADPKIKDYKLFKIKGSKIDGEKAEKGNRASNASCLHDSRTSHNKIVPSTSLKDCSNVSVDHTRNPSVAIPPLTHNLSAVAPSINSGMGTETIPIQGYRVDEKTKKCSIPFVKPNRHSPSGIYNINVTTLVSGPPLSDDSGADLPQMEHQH
T5 sequence (P27361 whole entry): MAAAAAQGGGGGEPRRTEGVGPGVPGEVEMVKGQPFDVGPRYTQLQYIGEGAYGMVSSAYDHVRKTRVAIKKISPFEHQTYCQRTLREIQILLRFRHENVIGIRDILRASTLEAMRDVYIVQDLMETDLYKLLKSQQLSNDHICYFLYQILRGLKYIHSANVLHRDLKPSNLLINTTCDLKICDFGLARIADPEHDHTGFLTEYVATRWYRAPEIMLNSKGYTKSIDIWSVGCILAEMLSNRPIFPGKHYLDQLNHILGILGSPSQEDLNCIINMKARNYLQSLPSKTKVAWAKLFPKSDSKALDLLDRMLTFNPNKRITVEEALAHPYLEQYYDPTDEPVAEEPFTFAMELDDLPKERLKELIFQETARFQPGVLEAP

On to `Cc1ccc(NC(=O)c2cccc(C(F)(F)F)c2)cc1Nc1cc(-c2cccnc2)nc2[nH]ccc12` [HZX-02-059], for which the remaining binding at 1 µM in [1] turned out to be 61%; at ALK(L1196M) it was 97%; on AMPK-alpha1, 97%; at BIKE, 94%; at BMPR2, 100%; on CAMK1D, 100%. The remaining binding at 1 µM at CAMK1G turned out to be 100%; at CDKL2, 99%; at CLK1 it was 96%; at CSNK1D it was 96%; at CTK it was 56%; at DMPK, 81%. Moreover, the remaining binding at 1 µM amounted to 8.3% at EPHA4; 99% on ERK1; 100% on FLT3(ITD,D835V); 98% on FLT3(K663Q); 100% on MAP3K4; 100% at MARK4. For the same compound, the remaining binding at 1 µM at MEK4 is 78%; at MYLK2, 100%; at PIK3C2B, 100%; on RIOK3, 100%; on TNIK it was 100%; at WEE2, 100%.
